# Laboratory results: patent US9499478B2, “Substituted cyclopentanes for inducing hair growth” (Allergan, Inc., priority 2011, dated 2016)
# What was measured:
# [1] = Pharmacokinetic assessment of mouse hair regrowth model (blood and skin); format: in vivo, mice; conditions: 0.03% dermal daily, all measured time points, LC/MS-MS
# Method: Experimental Design. Female C57BL/6J mice (n=2) were assayed per time point per treatment group. Treatment groups: (1) vehicle; (2) 0.03% Cmpd IVa; (3) 0.03% Cmpd IIIb; (4) 0.03% Cmpd IVb; (5) 0.03% bimatoprost. Treatment dosing: dermal daily application of ˜60 uL test compound solution. Blood and skin pharmacokinetic time points were obtained at day 1 (1, 4, 8 and 24-hrs post-dose); day 2 (24-hrs post-dose); day 14 (24-hrs post-dose); and day 42 (28 days post day 14 dose). Bioanalysis employed LC/MS-MS.
# mouse skin = assay: Pathology assessment of mouse hair regrowth model; format: in vivo, mice; conditions: histology, 0.03%; vehicle control still in growth phase
# Excerpt: Experimental Design. Histological samples from test subjects employed in the studies described in Example 12 were obtained for pathology assessment.
# [2] = In vitro human skin penetration, Franz diffusion chamber; format: in vitro ADME; conditions: for Percentage Dose Applied, Receptor Chamber Solution, Prodrug / Percentage Dose Applied, Upper ⅓ Dermis, Prodrug / conversion to bimatoprost in the receptor chamber solution: 0.03% in Formulation A; for Percentage Dose Applied, Receptor Chamber Solution, Prodrug / Percentage Dose Applied, Upper ⅓ Dermis, Prodrug: applied agent; for Percentage Dose Applied, Upper ⅓ Dermis, Prodrug: dermis at 48 hrs; for conversion to bimatoprost in skin layers: SC/Epi/Dermis layers
# Excerpt: Experimental Design. Test material: Dermatomed ex vivo human cadaver posterior trunk skin on 1.0 cm^2 Franz diffusion chamber as known in the art. Test size: 3 skin donors (obtained from New York Firefighters Skin Bank), 3 replicates per donor per formulation. Test formulations: 0.03% active agent (Cmpd IVa, Cmpd IIIb, Cmpd IVb) in Formulation A; control formulation: bimatoprost at 0.03% in Formulation A. Dosing regimen: receptor fluid at 2, 4, 24, and 48 hrs; SC/epidermis and dermis at 48 hrs. Sample analysis: LC/MS-MS to detect bimatoprost and Cmpds IVa, IIIb and IVb.
# [3] = Dermal tolerability in rats; format: in vivo; conditions: female rats, 3 mg/kg/day daily for 8 days; for change in food consumption or body weight gain (in words): IVb decreases not statistically significant
# Method: Experimental Design. Female rats were administered either vehicle or one of Cmpds IVa, IIIb, or IVb daily for 8 days. The administered dose was 3 mg/kg/day, at a concentration of 3 mg/mL. Observed data were body weight, viability, food consumption, and dermal observation (skin reaction grading), as known in the art. The vehicle was Formulation A. See Table 1 above.
# [4] = system: mouse model of hair regrowth; assay: Piliation studies (mouse model of hair regrowth); format: in vivo, mice
# Method: Experimental Design. C57Black/6J, 7-week old female mice (n=10) were employed in piliation studies. Dorsal hair was shaved (area ˜2 cm×4 cm). Dosing of active agent was once per day (QD) by topical administration for 14 days. Observations were conducted for 42-days to determine onset of new hair growth and day of hair growth completion. Compounds were formulated as either a) 50% propylene glycol, 30% ethanol, 20% water, or b) the formulation of Formulation A described above. The experiments reported for FIGS. 4A-4B, 5A-5B, 6A-6B, 8A-8B, and 9A-9B were conducted using a vehicle with formulation of 50% propylene glycol, 30% ethanol, 20% water. The experiments reported for FIGS. 7A-7B were conducted using a vehicle of Formulation A described above.
# Results. For each of FIGS. 4A, 5A, 6A, 7A, 8A and 9A, the histograms depict the day of onset of hair growth. For each of FIGS. 4B, 5B, 6B, 7B, 8B and 9B, the histograms depict the day achieving full hair growth.
# [5] = microAmes mutagenesis screen; format: cell-based; conditions: with or without metabolic activation
# Excerpt: Experimental Design. Cmpds IVa, IIIb, and IVb were subjected to the microAmes screen, as known in the art.
# [6] = MALDI-MS imaging of compound distribution in mouse skin; format: in vivo
# Method: Rationale. In order to determine the penetration, accumulation and/or differential distribution of bimatoprost and compounds disclosed herein upon dermal administration, MALDI-MS (matrix assisted laser desorption ionization mass spectroscopy) imaging was conducted on explanted samples of mouse skin after topical dermal administration.
# Experimental Design. MALDI-MS imaging was conducted on mouse skin strips after administration of bimatoprost or compound disclosed herein once daily for 3 days. Samples of mouse skin were recovered 4 hr after day-3 dosing of compound. Dermal administration was conducted with vehicle, 0.03% bimatoprost, 3% bimatoprost, 0.03% Cmpd IVa, and 3% Cmpd IVa.
# FIG. 16A depicts a typical explanted sample of mouse skin for these studies, wherein Cmpd IVa was applied via dermal administration. FIG. 16B depicts the result of MALDI-MS imaging. The intensity of each pixel within FIG. 16B reflects the concentration of Cmpd IVa at the corresponding point in the image depicted in FIG. 16A. FIG. 16C depicts a representative mass spectrum, corresponding to the region of FIG. 16B indicated by the white circle within FIG. 16B. Accordingly, each pixel of the image of FIG. 16B has an associated mass spectrum, providing the amounts of bimatoprost or other administered compound or metabolite thereof.
SMILES,level in the systemic circulation [1],hair cycle phase at day-42 (mouse skin),"Percentage Dose Applied, Receptor Chamber Solution, Prodrug [2] [%]","Percentage Dose Applied, Upper ⅓ Dermis, Prodrug [2] [%]","Body Weight Gain, Mean ± SD [3] [g]","Food Consumption, Mean ± SD [3] [g]",change in food consumption or body weight gain (in words) [3],pharmacological efficacy relative to bimatoprost ([4]; vehicle Formulation A),mutagenicity [5],conversion to bimatoprost in the receptor chamber solution [2],conversion to bimatoprost in skin layers [2],activity in the time required to regain full hair growth ([4]; among compounds tested),effectiveness of 0.03% compound compared to 0.1% to 0.3% bimatoprost ([4]; 0.03% Cmpd IVa),"pharmacological efficacy relative to bimatoprost ([4]; vehicle 50% propylene glycol, 30% ethanol, 20% water)",skin penetration of compound compared with bimatoprost ([6]; 3.0% topical dermal administration each),detectability of compound in mouse skin by MALDI-MS imaging ([6]; after topical dermal administration at 0.03%)
"CCNC(=O)CCC/C=C\C[C@@H]1[C@@H](/C=C/[C@@H](O)CCc2ccccc2)[C@H](O)C[C@@H]1O [bimatoprost, (Z)-7-((1R,2R,3R,5S)-3,5-dihydroxy-2-((S,E)-3-hydroxy-5-phenylpent-1-enyl)cyclopentyl)-N-ethylhept-5-enamide, reference compound]",most undetectable,returned to the resting phase,1.1,7.0,,,,,,,,,,,,
"CCNC(=O)CCC/C=C\C[C@@H]1[C@@H](/C=C/[C@@H](O)CCc2ccccc2)[C@H](OC(=O)CC)C[C@@H]1O [Cmpd IIIb, 11-propionyl bimatoprost]",most undetectable,returned to the resting phase,0.8,2.1,10.0 ± 6.1,22.8 ± 1.36,no significant change,approximately equivalent efficacy,not mutagenic,observed to convert to bimatoprost,converted to bimatoprost,,,,,
"CCNC(=O)CCC/C=C\C[C@@H]1[C@@H](/C=C/[C@H](CCc2ccccc2)OC(=O)CC)[C@H](O)C[C@@H]1O [Cmpd IVb, 15-propionyl-bimatoprost]",most undetectable,returned to the resting phase,2.1,1.9,0.3 ± 6.7,19.19 ± 1.32,decreases in both food consumption and body weight gain,approximately equivalent efficacy,not mutagenic,observed to convert to bimatoprost,converted to bimatoprost,best activity,,,,
"CCNC(=O)CCC/C=C\C[C@@H]1[C@@H](/C=C/[C@H](CCc2ccccc2)OC(C)=O)[C@H](O)C[C@@H]1O [Cmpd IVa, 15-acetyl-bimatoprost]",most undetectable,returned to the resting phase,4.3,3.8,9.0 ± 3.0,21.14 ± 1.08,no significant change,greater than bimatoprost,not mutagenic,observed to convert to bimatoprost,converted to bimatoprost,,approximately equally effective,greater than bimatoprost,similar,detectable
